The text below walks through data of ChEMBL document CHEMBL1127185, “4-Aryltetrahydropyridines as selective ligands” (Bioorg Med Chem Lett, 1993).

One assay has as its target D(2) dopamine receptor (Rattus norvegicus, UniProt P61169). Nature of the assay: Binding affinity against Dopamine receptor D2 in rat striatum using [3H]spiperone. Format: tissue-based.
The test system of another assay is Mus musculus. The assay is described as follows: Tested for effective dose causing inhibition of mouse locomotor activity by intraperitoneal administration. Format: functional. To be noted: ip.
Assay [1] concerns Rattus norvegicus. Nature of the assay: Tested for the inhibition of dopamine firing at 2.5 mg/kg by intraperitoneal administration. The class given is functional. Conditions: ip.
Assay [2] relates to Rattus norvegicus. Nature of the assay: Tested for the inhibition of dopamine synthesis at 10 mg/kg by intraperitoneal administration. Format: functional. Conditions: ip.
In assay [3] the test system is Rattus norvegicus. Nature of the assay: Tested for the inhibition of dopamine synthesis at 10 mg//Kg by intraperitoneal administration. The class given is functional.
Assay [4] relates to Rattus norvegicus. Nature of the assay: Tested for the inhibition of dopamine firing at 2.5 mg/Kg by intraperitoneal administration. To be noted: ip. Format: functional.

SMILES strings stand for the structures.

Chain of D(2) dopamine receptor (P61169 whole entry): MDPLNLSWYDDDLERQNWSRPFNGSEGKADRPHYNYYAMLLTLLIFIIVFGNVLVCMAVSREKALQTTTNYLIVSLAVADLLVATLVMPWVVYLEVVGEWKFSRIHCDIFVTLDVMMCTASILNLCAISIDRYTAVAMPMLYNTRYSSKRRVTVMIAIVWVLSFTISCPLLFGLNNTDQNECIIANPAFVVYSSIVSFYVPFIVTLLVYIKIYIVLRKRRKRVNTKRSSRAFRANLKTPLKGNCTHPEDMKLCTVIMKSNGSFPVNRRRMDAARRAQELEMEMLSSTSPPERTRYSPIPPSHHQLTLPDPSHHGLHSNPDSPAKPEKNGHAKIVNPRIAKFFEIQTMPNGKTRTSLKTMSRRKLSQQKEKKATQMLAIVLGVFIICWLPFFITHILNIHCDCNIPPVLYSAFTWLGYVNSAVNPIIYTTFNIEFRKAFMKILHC

In general, Ki refers to a measure of affinity in units of concentration, obtained from inhibition or displacement. A low value points to higher affinity. For `C1=C(c2ccccn2)CCN(CCCCc2ccncc2)C1`, the Ki at D(2) dopamine receptor is 322 nM.

For `C1=C(c2cccs2)CCN(CCCCc2ccncc2)C1`, the affinity at D(2) dopamine receptor corresponds to a Ki of 496 nM.

What is called ED50 is the midpoint of the dose-response relation. High values mean a need for a large dose, low ones an effect at a small dose. Usually inhibition in vivo stands for the relative decrease from the control value, in per cent. A higher inhibition in vivo goes with a strong effect. In the case of `Fc1ccc(C2=CCN(CCCCc3ccncc3)CC2)cc1`, the 50% effect level in the assay with Mus musculus (ED50) was put at a dose of 3.8 mg/kg. The same compound yielded an inhibition in vivo at 2.5 mg/kg with Rattus norvegicus [1] of 9%. On D(2) dopamine receptor, this compound showed a Ki of 5310 nM. The inhibition in vivo at 10 mg/kg in the assay with Rattus norvegicus [2] was determined as 0%.

At D(2) dopamine receptor, `C1=C(c2c[nH]c3ccccc23)CCN(CCCCc2ccncc2)C1` yielded a Ki of 286 nM.

`COc1ccc(C2=CCN(CCCCc3ccncc3)CC2)cc1` yielded an ED50 with Mus musculus of 7.4 mg/kg. In the assay on Rattus norvegicus [1], this compound gave an inhibition in vivo at 2.5 mg/kg of 6%. Moreover, on D(2) dopamine receptor, affinity was put at a Ki of 1640 nM. In the assay with Rattus norvegicus [2], testing at 10 mg/kg gave an inhibition in vivo of 18%.

`Clc1ccc(C2=CCN(CCCCc3ccncc3)CC2)cc1` showed a Ki at D(2) dopamine receptor of 456 nM.

Turning to `Cc1ccc(C2=CCN(CCCCc3ccncc3)CC2)cc1`, on D(2) dopamine receptor, the affinity corresponds to a Ki of 957 nM.

Compound `C1=C(c2ccc3ccccc3c2)CCN(CCCCc2ccncc2)C1` showed a Ki at D(2) dopamine receptor of 660 nM.

By Inhibition is commonly meant the drop in the measured response relative to a control, in per cent. A low value points to a response near the control. The compound `C1=C(c2ccccc2)CCN(CCCCc2ccncc2)C1` came in with an ED50 with Mus musculus of 0.6 mg/kg. For the same compound, in the assay on Rattus norvegicus [3], the Inhibition was 87%. This compound also returned a Ki on D(2) dopamine receptor of 69.1 nM. The compound also returned an inhibition in vivo at 2.5 mg/kg in the assay with Rattus norvegicus [4] of 80%.
